Assay results: patent publication US10655161B2, “Diagnostic and prognostic assays based on circulating tyrosine kinase activity” (Quest Diagnostics Investments Incorporated, priority 2010, dated 2020)

Tested on: cTK activity in plasma from a CML patient harboring the T315I mutation
Test: Ex vivo plasma cTK activity assay, plasma from a multidrug-resistant CML patient with T315I mutation
Format: biochemical, human
Details: 1-5 μM imatinib (FIG. 2A)
Procedure: After incubation at 37° C. for 30 min, the PY20-HRP solution was replaced by HRP substrate solution (TMBZ).

Structure (SMILES): Cc1ccc(NC(=O)c2ccc(CN3CCN(C)CC3)cc2)cc1Nc1nccc(-c2cccnc2)n1 [Imatinib, imatinib]
- Inhibition of cTK activity: little inhibition
